Laboratory results published in patent publication US4524077A, “Liquid 2-hydroxy-4-methylthiobutyric acid and process for the preparation thereof” (priority 1983, dated 1985).

Experiments:
[1] = Extraction of diluted HCl hydrolyzate at 70° C. (Table VIII); assay type: physicochemical; details: HMBA extract/raffinate, HCl hydrolyzate diluted 100:40 with water
From the text: The phases were separated and analyzed for HMBA.
This work up and extraction was repeated for 1-butanol.

[2] = Gardner color of HMBA product; assay type: physicochemical
From the text: This product has a total HMBA content, including monomer, dimers, and oligomers, of between about 80% and about 95% by weight, preferably 85% to 90% by weight, and a water content of between about 5% and about 20%, preferably between 10% and about 15% by weight. […] The ratio of the weight proportion of HMBA monomer to the weight proportion of the sum of dimers and other oligomers thereof is at least about 2.8, preferably at least about 5.7.

Gardner color ([2]; 88% by weight solution in water, Example 1, first method (methyl propyl ketone and water extraction)) | Color (Gardner) ([2]; Example 6, Product) | Gardner color ([2]; Example 13, bottom product, 88.9% HMBA) | Structure (SMILES) | Distribution Coefficient [1]
 |  |  | CC(=O)CC(C)C [Methyl isobutyl ketone] | 2.4
5 | 3 | 4 | CSCCC(O)C(=O)O (racemic) [HMBA, 2-hydroxy-4-methylthiobutyric acid] | 
